Laboratory results published in US20080227640A1, “Plant Growth Regulation” (Bayer CropScience GmbH, priority 2004, published 2008).

What was measured:
[1] = system: wheat (Triticum aestivum, variety "TRISO"); assay: Root growth assay, seed treatment, wheat; format: in vivo; conditions: Root Growth of 100 set as standard (untreated control), wet root weight 16 (±2) days post treatment
Excerpt: (§1) Plant roots are a highly proliferative tissue which allows to be seen as a reliable target organ in order to screen for plant growth regulators. The results obtained are regarded as an indication for the overall effects on a plant of plant growth regulators identified by such a system. By using this root assay one is enabled to determine the effect of a seed treatment to root growth and/or germination and/or changes in habitat of germinated plants in order to identify the possible use as a yield enhancer. Two seeds of wheat (Triticum aestivum, variety “TRISO”) or 1 seed of maize (Zea mays, variety “LORENZO”) per hole in a plastic tray which contains an architecture of 8×13 holes were placed on compost soil covered with sand. These seeds were treated with 100 μl/hole, which creates an application volume of approx. 1200 l/ha, of a compound solution at active ingredient rates equivalent to 100, 10 and 1 g a.i./ha of each compound using an robotic application system (Lizzy Spray Robotics). Six replicates in a row of each compound and concentration were done. The outer rim of the above defined plastic tray was untreated to avoid false negative effects and the middle row (No. 7) was used as untreated control. The treated seeds were allowed to dry for approx. 4 hours and subsequently covered with sand and watered. The trays were stored in climate chambers with 14 hours lighting at a temperature of 24° C. (±2) at daytime and 16° C. (±2) at night and relative humidity (rH) of 60% and daily watered. Assessments were done 16 (±2) days post treatment by counting the germinated plants and assessing the phytotoxicity symptoms and percentage. In addition, the roots were washed out and the shoots were cut directly above the seed and the wet roots were placed on dry paper towels for approximately 30 minutes and weighted afterwards. This procedure provides a similar grade of moisture to the roots so that a comparison of the weights is possible.
(§2) The effects observed concerning Root Growth given in column 2 (Root Growth of “100” is set as the standard) are directed to concentrations that are equivalent to 100, 10, 1 g a.i./ha, each.

[2] = system: maize (Zea mays, variety "LORENZO"); assay: Root growth assay, seed treatment, maize; format: in vivo; conditions: Root Growth of 100 set as standard (untreated control), wet root weight 16 (±2) days post treatment
Excerpt: as §1, §2

Row | SMILES | Root Growth ([1]; 1 g a.i./ha) | Root Growth ([1]; 10 g a.i./ha) | Root Growth ([1]; 100 g a.i./ha) | Root Growth ([2]; 1 g a.i./ha) | Root Growth ([2]; 10 g a.i./ha) | Root Growth ([2]; 100 g a.i./ha)
1 | O=C1Nc2ccc(I)cc2C1=NNc1ncc(C(F)(F)F)cc1Cl [Compound 1.1] | 209 | 93 | 170 | – | – | –
2 | O=C1Nc2ccc(Br)cc2C1=NNc1c(F)c(F)cc(F)c1F [Compound 1.2] | 198 | 228 | 274 | 69 | 116 | 567
3 | O=C1Nc2ccc(Br)cc2C1=NNc1ccc(Cl)cc1 [Compound 1.4] | – | – | – | 105 | 125 | 99
4 | O=C1Nc2ccc(Br)cc2C1=NNc1cc(Cl)cc(Cl)c1 [Compound 1.5] | 149 | 117 | 161 | – | – | –
5 | Cc1ccc(NN=C2C(=O)Nc3ccc(Br)cc32)cc1 [Compound 1.6] | – | – | – | 149 | 140 | 137
6 | O=C1Nc2ccc([N+](=O)[O-])cc2C1=NNc1ncc(C(F)(F)F)cc1Cl [Compound 1.8] | – | – | – | 174 | 100 | 48
7 | O=C1Nc2ccc(Cl)cc2C1=NNc1cccc([N+](=O)[O-])c1 [Compound 1.10] | – | – | – | 126 | 107 | 102
8 | Cc1ccc(NN=C2C(=O)Nc3ccc([N+](=O)[O-])cc32)cc1Cl [Compound 1.12] | – | – | – | 148 | 88 | 114
9 | O=C1Nc2ccc(F)cc2C1=NNc1c(F)c(F)cc(F)c1F [Compound 1.18] | – | – | – | 150 | 85 | 170
10 | NS(=O)(=O)c1ccc(NN=C2C(=O)Nc3ccc(F)cc32)cc1 [Compound 1.23, 4-[2-(5-Fluoro-2-oxo-1,2-dihydro-3H-indol-3-ylidene)-hydrazino]-benzenesulfonamide] | 135 | 61 | 65 | – | – | –
11 | O=C1Nc2ccc(I)cc2/C1=C1/Nc2ccccc2/C1=N\O [Compound 2.1, 5-Iodoindirubin-3′-oxime] | 135 | 151 | 122 | – | – | –
12 | CCON=C1C(=C2C(=O)Nc3ccc(Br)cc32)Nc2ccccc21 [Compound 2.4, 5-Bromoindirubin-3′-ethyloxime] | 184 | 115 | 62 | – | – | –
13 | O=C1Nc2ccc(F)cc2C1=C1Nc2ccccc2C1=NO [Compound 2.7] | 182 | 390 | 172 | 174 | 159 | 118
